{"source": "paper PMC7433010", "about": "“Exploration of multi‐target effects of 3‐benzoyl‐5‐hydroxychromen‐2‐one in Alzheimer’s disease cell and mouse models” (Aging Cell, 2020)", "key": {"ΔK280 TauRD‐DsRed": {"tested_on": "ΔK280 TauRD‐DsRed", "test": "Western blot of soluble ΔK280 TauRD‐DsRed in SH‐SY5Y cells", "type": "cell-based, human", "conditions": "1 µM, not significant", "description": "To knock down CREB expression in ∆K280 TauRD-DsRed SH-SY5Y cells, lentiviral short hairpin RNA (shRNA) targeting CREB (TRCN0000226466), NRF2 (TRCN0000007558), and a negative control scrambled (TRC2.Void) were obtained from National RNAi Core Facility, IMB/GRC, Academia Sinica, Taipei, Taiwan. On day 1, cells were plated on 6-well plates (for protein analysis) or 24-well plates (for neurite outgrowth analysis) in the presence of retinoic acid as described. On the second day, the cells were infected with lentivirus (multiplicity of infection: 3) in medium with polybrene (8 µg/mL; Sigma-Aldrich). […] On day 9, the cells were collected for NRF2, CREB, pCREB, and cleaved CASP3 protein analysis or analyzed for neurite outgrowth as described.\nTotal proteins from ∆K280 TauRD-DsRed SH-SY5Y cells were obtained using a RIPA buffer containing 50 mM Tris-HCl (pH8.0), 150 mM NaCl, 2 mM EDTA (pH8.0), 50 mM NaF, 0.1% SDS, 0.5% sodium deoxycholate, 1% NP40, and a protease inhibitor cocktail (Sigma-Aldrich). […] Protein concentrations were determined using a protein assay kit (Bio-Rad, Hercules, CA, USA), with albumin as a standard. […] Subsequently, immune complexes were detected using a horseradish peroxidase-conjugated goat anti-mouse or goat anti-rabbit IgG antibody (1:5000; GeneTex, Irvive, CA, USA) and a chemiluminescent substrate (Millipore)."}, "[1]": {"tested_on": "STZ‐induced hyperglycemic 3 × Tg‐AD mice", "test": "Morris water maze task in STZ‐treated 3 × Tg‐AD mice", "type": "in vivo, mouse", "conditions": "for Morris water maze latency to hidden platform: 40 mg/kg i.p.", "description": "(§1) Mice harboring APPSwe, PS1M146V, and […] transgenes (3×Tg-AD) (Oddo et al., 2003) were purchased from the Jackson Laboratory (004807; Bar Harbor, ME, USA). Six-month-old male homozygous 3×Tg-AD mice were group housed at 20–25°C and 60% relative humidity under a daily 12-h light/12-h dark cycle, with assess to food and water ad libitum. Mice were randomly divided into 3 groups: – streptozocin (STZ), STZ, and STZ/LM-031 (n = 10 per group). STZ-induced hyperglycemia was used to accelerate the development of AD phenotype (Chen et al., 2014). Briefly, the mice were fasted for 12 h each day prior to intraperitoneal (i.p.) injection of STZ ([…]; Sigma-Aldrich) or vehicle (0.1 M sodium citrate pH4.5) for 4 times (days 2, 3, 9, and 10) (Chen et al., 2019). Mouse body weight was measured and blood glucose level was measured on days 1, 8, 15, 22, and 29 using a blood glucose meter (Bioland Technology, Taipei, Taiwan). LM-031 (40 mg/kg) or vehicle (DMSO:Cremophor EL:0.9% saline = 1:2:7) was intraperitoneally injected every day for 22 days from days 15 to 36. All animal procedures were ethically approved by the Institutional Animal Care and Use Committee of National Taiwan Normal University, Taipei, Taiwan (Permit Number: 103002) and were conducted in compliance with the ARRIVE (Animal Research: Reporting In Vivo Experiments) guidelines.\nThe water maze apparatus consisted of a circular pool with diameter 100 cm and height 76 cm, a submerged platform 1 cm below the water surface, four types of cues providing distal landmarks in the testing room, and a video camera suspended 250 cm above the center of the pool and connected to a video tracking system. The pool was filled up with water (24–26°C, 35 cm high) rendered opaque by the addition of nontoxic white paint. Mice relied on external cues to find the hidden platform in opaque water. One day prior to spatial training, all mice underwent pretraining to examine animals’ swimming ability and to acclimatize them to the pool. For pretraining (day 29), each mouse was placed in the pool to swim for 60 sec. After three trials, a platform was placed in the center of the pool and the mouse was allowed to remain there for 20 sec. For training (days 30–33), the platform was placed in a quadrant and each mouse received four trials per day for 4 consecutive days, with a cue signaling the platform position. The submerged platform remained there and entry points changed semi-randomly throughout all trials. The trial ended either when the mouse climbed onto the platform or when 60 seconds had elapsed. At the end of each trial the mouse was placed on the platform and faced the cue for 20 sec, learning where the platform was. […] All the data were analyzed by PhenoTracker."}, "NRF2": {"tested_on": "NRF2", "test": "Western blot of NRF2 in hippocampus of STZ‐treated 3 × Tg‐AD mice", "type": "in vivo, mouse", "conditions": "STZ 53%, – STZ 100%", "description": "In addition, isolated hippocampal and cortex tissues from transgenic mice (as described in Animal studies) were homogenized and extracted proteins (10 µg) were separated and blotted. After being blocked, the membranes were probed with antibody against mouse NRF2 (1:500; Sigma-Aldrich), CREB (1:500; Millipore), pCREB (S133) (1:1000; Millipore), or GAPDH (1:1000; MDBio), and the immune complexes detected as described above.\nas §1, with “LM-031 (40 mg/kg) or vehicle (DMSO:Cremophor EL:0.9% saline = 1:2:7) was intraperitoneally injected every day for 22 days from days 15 to 36. All animal procedures were ethically approved by the Institutional Animal Care and Use Committee of National Taiwan Normal University, Taipei, Taiwan (Permit Number: 103002) and were conducted in compliance with the ARRIVE (Animal Research: Reporting In Vivo Experiments) guidelines.” left out"}}, "data": [{"compound": "O=C(c1ccccc1)c1cc2c(O)cccc2oc1=O", "note": "[LM‐031, 3‐benzoyl‐5‐hydroxychromen‐2‐one]", "values": [{"measurement": "soluble TauRD‐DsRed protein level", "setting": "ΔK280 TauRD‐DsRed; CREB‐specific shRNA‐infected cells, untreated 86%", "value": 104, "unit": "%"}, {"measurement": "soluble TauRD‐DsRed protein level", "setting": "ΔK280 TauRD‐DsRed; NRF2‐specific shRNA‐infected cells, untreated 82%", "value": 103, "unit": "%"}, {"measurement": "Morris water maze duration in target quadrant", "setting": "[1]; probe trials 2 and 48 hr (days 34 and 36), STZ 17 s, – STZ 26 s", "value": 24, "unit": "s"}, {"measurement": "Morris water maze latency to hidden platform", "setting": "[1]; testing on day 34, STZ 39 s, – STZ 21 s", "value": 26, "unit": "s"}, {"measurement": "Morris water maze latency to hidden platform", "setting": "[1]; training day 3, STZ 43 s, – STZ 31 s", "value": 31, "unit": "s"}, {"measurement": "Morris water maze latency to hidden platform", "setting": "[1]; training day 4, STZ 40 s, – STZ 26 s", "value": 30, "unit": "s"}, {"measurement": "NRF2 level in hippocampus", "setting": "NRF2", "value": 92, "unit": "%"}]}]}
